{"source": "ChEMBL document CHEMBL1201862", "about": "“PubChem BioAssay data set” (2004)", "test_in_all_cases": "NCI-60 cell line screen, 48 h", "key": {"[1]": {"test_system": "NCI-H226"}, "[2]": {"test_system": "HCT-116"}, "[3]": {"test_system": "HL-60"}, "[4]": {"test_system": "IGROV-1"}, "[5]": {"test_system": "A498"}, "[6]": {"test_system": "NCI-H23"}, "[7]": {"test_system": "COLO 205"}, "[8]": {"test_system": "HOP-92"}, "[9]": {"test_system": "SK-OV-3"}, "[10]": {"test_system": "LXFL 529"}, "[11]": {"test_system": "M14"}, "[12]": {"test_system": "SK-MEL-2"}, "[13]": {"test_system": "HOP-62"}, "[14]": {"test_system": "Malme-3M"}, "[15]": {"test_system": "RPMI-8226"}, "[16]": {"test_system": "SF-539"}, "[17]": {"test_system": "SN12C"}, "[18]": {"test_system": "UO-31"}, "[19]": {"test_system": "CCRF-CEM"}, "[20]": {"test_system": "M19-MEL"}, "[21]": {"test_system": "SNB-78"}, "[22]": {"test_system": "CAKI-1"}, "[23]": {"test_system": "NCI-H460"}, "[24]": {"test_system": "786-0"}, "[25]": {"test_system": "MOLT-4"}, "[26]": {"test_system": "XF498"}, "[27]": {"test_system": "DLD-1"}, "[28]": {"test_system": "SNB-75"}, "[29]": {"test_system": "K562"}, "[30]": {"test_system": "HCC 2998"}, "[31]": {"test_system": "UACC-62"}, "[32]": {"test_system": "DMS-114"}, "[33]": {"test_system": "SF-268"}, "[34]": {"test_system": "SK-MEL-28"}, "[35]": {"test_system": "OVCAR-4"}, "[36]": {"test_system": "NCI-H522"}, "[37]": {"test_system": "DMS-273"}, "[38]": {"test_system": "SR"}, "[39]": {"test_system": "DU-145"}, "[40]": {"test_system": "MDA-N"}, "[41]": {"test_system": "OVCAR-5"}, "[42]": {"test_system": "EKVX"}, "[43]": {"test_system": "SNB-19"}, "[44]": {"test_system": "SK-MEL-5"}, "[45]": {"test_system": "PC-3"}, "[46]": {"test_system": "LOX IMVI"}, "[47]": {"test_system": "HT-29"}, "[48]": {"test_system": "ACHN"}, "[49]": {"test_system": "T47D"}, "[50]": {"test_system": "SW-620"}, "[51]": {"test_system": "MCF7"}, "[52]": {"test_system": "NCI/ADR-RES"}, "[53]": {"test_system": "TK-10"}, "[54]": {"test_system": "OVCAR-8"}, "[55]": {"test_system": "MDA-MB-231"}, "[56]": {"test_system": "MDA-MB-435"}, "[57]": {"test_system": "RXF 393"}, "[58]": {"test_system": "OVCAR-3"}, "[59]": {"test_system": "A549"}, "[60]": {"test_system": "SF-295"}, "[61]": {"test_system": "HCT-15"}, "[62]": {"test_system": "KM12"}, "[63]": {"test_system": "UACC-257"}, "[64]": {"test_system": "U-251"}, "[65]": {"test_system": "Hs-578T"}, "[66]": {"test_system": "BT-549"}}, "note": "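Method: 48-hour compound exposure of cells in 96-well plates, five concentrations, linear interpolation of endpoints. Here, GI50 denotes the concentration required for 50% inhibition of growth.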 Activity calls are given as the source filed them. No stated cut-off is given here; in the data, active = GI50 up to about 1.1 µM and inactive = higher.", "data": [{"compound": "Cc1[nH]c(=O)nc(N/N=C/c2ccc(O)cc2)c1C(=O)Nc1ccc(O)cc1", "values": [{"measurement": "GI50", "setting": "[1]", "value": "> 100 µM (inactive)"}, {"measurement": "GI50", "setting": "[2]", "value": "> 100 µM (inactive)"}, {"measurement": "GI50", "setting": "[3]", "value": "> 100 µM (inactive)"}, {"measurement": "GI50", "setting": "[4]", "value": "> 100 µM (inactive)"}, {"measurement": "GI50", "setting": "[5]", "value": "> 100 µM (inactive)"}, {"measurement": "GI50", "setting": "[6]", "value": "> 100 µM (inactive)"}, {"measurement": "GI50", "setting": "[7]", "value": "> 100 µM (inactive)"}, {"measurement": "GI50", "setting": "[8]", "value": "> 100 µM (inactive)"}, {"measurement": "GI50", "setting": "[9]", "value": "> 100 µM (inactive)"}, {"measurement": "GI50", "setting": "[10]", "value": "> 100 µM (inactive)"}, {"measurement": "GI50", "setting": "[11]", "value": "> 100 µM (inactive)"}, {"measurement": "GI50", "setting": "[12]", "value": "> 100 µM (inactive)"}, {"measurement": "GI50", "setting": "[13]", "value": "> 100 µM (inactive)"}, {"measurement": "GI50", "setting": "[14]", "value": "> 100 µM (inactive)"}, {"measurement": "GI50", "setting": "[15]", "value": "> 100 µM (inactive)"}, {"measurement": "GI50", "setting": "[16]", "value": "> 100 µM (inactive)"}, {"measurement": "GI50", "setting": "[17]", "value": "> 100 µM (inactive)"}, {"measurement": "GI50", "setting": "[18]", "value": "> 100 µM (inactive)"}, {"measurement": "GI50", "setting": "[19]", "value": "> 100 µM (inactive)"}, {"measurement": "GI50", "setting": "[20]", "value": "> 100 µM (inactive)"}, {"measurement": "GI50", "setting": "[21]", "value": "72.8 µM (inactive)"}, {"measurement": "GI50", "setting": "[22]", "value": "> 100 µM (inactive)"}, {"measurement": "GI50", "setting": "[23]", "value": "> 100 µM (inactive)"}, {"measurement": "GI50", "setting": "[24]", "value": "> 100 µM (inactive)"}, {"measurement": "GI50", "setting": "[25]", "value": "> 100 µM (inactive)"}, {"measurement": "GI50", "setting": "[26]", "value": "> 100 µM (inactive)"}, {"measurement": "GI50", "setting": "[27]", "value": "> 100 µM (inactive)"}, {"measurement": "GI50", "setting": "[28]", "value": "> 100 µM (inactive)"}, {"measurement": "GI50", "setting": "[29]", "value": "> 100 µM (inactive)"}, {"measurement": "GI50", "setting": "[30]", "value": "> 100 µM (inactive)"}, {"measurement": "GI50", "setting": "[31]", "value": "> 100 µM (inactive)"}, {"measurement": "GI50", "setting": "[32]", "value": "> 100 µM (inactive)"}, {"measurement": "GI50", "setting": "[33]", "value": "> 100 µM (inactive)"}, {"measurement": "GI50", "setting": "[34]", "value": "> 100 µM (inactive)"}, {"measurement": "GI50", "setting": "[35]", "value": "> 100 µM (inactive)"}, {"measurement": "GI50", "setting": "[36]", "value": "> 100 µM (inactive)"}, {"measurement": "GI50", "setting": "[37]", "value": "> 100 µM (inactive)"}, {"measurement": "GI50", "setting": "[38]", "value": "> 100 µM (inactive)"}]}, {"compound": "NC(=O)c1ncn(C2OC(CO)C(O)C2O)c1NC=O", "note": "(configuration not stated)", "values": [{"measurement": "GI50", "setting": "[39]", "value": "> 100 µM (inactive)"}, {"measurement": "GI50", "setting": "[40]", "value": "> 100 µM (inactive)"}, {"measurement": "GI50", "setting": "[1]", "value": "> 100 µM (inactive)"}, {"measurement": "GI50", "setting": "[2]", "value": "> 100 µM (inactive)"}, {"measurement": "GI50", "setting": "[3]", "value": "> 100 µM (inactive)"}, {"measurement": "GI50", "setting": "[41]", "value": "> 100 µM (inactive)"}, {"measurement": "GI50", "setting": "[42]", "value": "> 100 µM (inactive)"}, {"measurement": "GI50", "setting": "[43]", "value": "> 100 µM (inactive)"}, {"measurement": "GI50", "setting": "[44]", "value": "> 100 µM (inactive)"}, {"measurement": "GI50", "setting": "[45]", "value": "> 100 µM (inactive)"}, {"measurement": "GI50", "setting": "[4]", "value": "> 100 µM (inactive)"}, {"measurement": "GI50", "setting": "[46]", "value": "> 100 µM (inactive)"}, {"measurement": "GI50", "setting": "[47]", "value": "> 100 µM (inactive)"}, {"measurement": "GI50", "setting": "[5]", "value": "> 100 µM (inactive)"}, {"measurement": "GI50", "setting": "[48]", "value": "> 100 µM (inactive)"}, {"measurement": "GI50", "setting": "[6]", "value": "> 100 µM (inactive)"}, {"measurement": "GI50", "setting": "[49]", "value": "> 100 µM (inactive)"}, {"measurement": "GI50", "setting": "[7]", "value": "> 100 µM (inactive)"}, {"measurement": "GI50", "setting": "[8]", "value": "> 100 µM (inactive)"}, {"measurement": "GI50", "setting": "[9]", "value": "> 100 µM (inactive)"}, {"measurement": "GI50", "setting": "[50]", "value": "> 100 µM (inactive)"}, {"measurement": "GI50", "setting": "[51]", "value": "> 100 µM (inactive)"}, {"measurement": "GI50", "setting": "[52]", "value": "> 100 µM (inactive)"}, {"measurement": "GI50", "setting": "[11]", "value": "> 100 µM (inactive)"}, {"measurement": "GI50", "setting": "[12]", "value": "> 100 µM (inactive)"}, {"measurement": "GI50", "setting": "[53]", "value": "> 100 µM (inactive)"}, {"measurement": "GI50", "setting": "[13]", "value": "> 100 µM (inactive)"}, {"measurement": "GI50", "setting": "[14]", "value": "> 100 µM (inactive)"}, {"measurement": "GI50", "setting": "[15]", "value": "> 100 µM (inactive)"}, {"measurement": "GI50", "setting": "[16]", "value": "> 100 µM (inactive)"}, {"measurement": "GI50", "setting": "[17]", "value": "> 100 µM (inactive)"}, {"measurement": "GI50", "setting": "[54]", "value": "> 100 µM (inactive)"}, {"measurement": "GI50", "setting": "[18]", "value": "> 100 µM (inactive)"}, {"measurement": "GI50", "setting": "[55]", "value": "> 100 µM (inactive)"}, {"measurement": "GI50", "setting": "[56]", "value": "> 100 µM (inactive)"}, {"measurement": "GI50", "setting": "[19]", "value": "> 100 µM (inactive)"}, {"measurement": "GI50", "setting": "[57]", "value": "> 100 µM (inactive)"}, {"measurement": "GI50", "setting": "[58]", "value": "> 100 µM (inactive)"}, {"measurement": "GI50", "setting": "[59]", "value": "> 100 µM (inactive)"}, {"measurement": "GI50", "setting": "[60]", "value": "> 100 µM (inactive)"}, {"measurement": "GI50", "setting": "[61]", "value": "> 100", "unit": "µM"}, {"measurement": "GI50", "setting": "[22]", "value": "> 100 µM (inactive)"}, {"measurement": "GI50", "setting": "[62]", "value": "> 100 µM (inactive)"}, {"measurement": "GI50", "setting": "[23]", "value": "> 100 µM (inactive)"}, {"measurement": "GI50", "setting": "[63]", "value": "> 100 µM (inactive)"}, {"measurement": "GI50", "setting": "[24]", "value": "> 100 µM (inactive)"}, {"measurement": "GI50", "setting": "[25]", "value": "> 100 µM (inactive)"}, {"measurement": "GI50", "setting": "[64]", "value": "> 100 µM (inactive)"}, {"measurement": "GI50", "setting": "[28]", "value": "> 100 µM (inactive)"}, {"measurement": "GI50", "setting": "[29]", "value": "> 100 µM (inactive)"}, {"measurement": "GI50", "setting": "[30]", "value": "> 100 µM (inactive)"}, {"measurement": "GI50", "setting": "[65]", "value": "> 100 µM (inactive)"}, {"measurement": "GI50", "setting": "[31]", "value": "> 100 µM (inactive)"}, {"measurement": "GI50", "setting": "[33]", "value": "> 100 µM (inactive)"}, {"measurement": "GI50", "setting": "[34]", "value": "> 100 µM (inactive)"}, {"measurement": "GI50", "setting": "[35]", "value": "> 100 µM (inactive)"}, {"measurement": "GI50", "setting": "[66]", "value": "> 100 µM (inactive)"}, {"measurement": "GI50", "setting": "[36]", "value": "> 100 µM (inactive)"}, {"measurement": "GI50", "setting": "[38]", "value": "> 100 µM (inactive)"}]}]}
